# Assay results reported in patent US10208040B2, “Fused imidazo-piperidine JAK inhibitors” (THERAVANCE BIOPHARMA R&D IP, LLC, priority 2017, dated 2019).
# Key:
# [1] = tested on: IL-13 induced pSTAT6 in lung tissue; assay: Murine model of IL-13 induced pSTAT6 induction in lung tissue; format: in vivo; conditions: mouse lung, oral aspiration 1 mg/mL 50 μL, IL-13 challenge 4 h post dose, pSTAT6 at 5 hours
# Protocol: IL-13 is an important cytokine underlying the pathophysiology of asthma (Kudlacz et al. Eur. J. Pharmacol, 2008, 582, 154-161). IL-13 binds to cell surface receptors activating members of the Janus family of kinases (JAK) which then phosphorylate STAT6 and subsequently activates further transcription pathways. In the described model, a dose of IL-13 was delivered locally into the lungs of mice to induce the phosphorylation of STAT6 (pSTAT6) which is then measured as the endpoint.
# Adult balb/c mice from Harlan were used in the assay. On the day of study, animals were lightly anesthetized with isoflurane and administered either vehicle or test compound (1 mg/mL, 50 μL total volume over several breaths) via oral aspiration. Animals were placed in lateral recumbency post dose and monitored for full recovery from anesthesia before being returned to their home cage. Four hours later, animals were once again briefly anesthetized and challenged with either vehicle or IL-13 (0.03 μg total dose delivered, 50 μL total volume) via oral aspiration before being monitored for recovery from anesthesia and returned to their home cage. One hour after vehicle or IL-13 administration, lungs were collected for both pSTAT6 detection using an anti-pSTAT6 ELISA (rabbit mAb capture/coating antibody; mouse mAb detection/report antibody: anti-pSTAT6-pY641; secondary antibody: anti-mouse IgG-HRP) and analyzed for total drug concentration as described above in Assay 3.
# Selected compounds of the invention were tested in the assay. Activity in the model is evidenced by a decrease in the level of pSTAT6 present in the lungs of treated animals at 5 hours compared to the vehicle treated, IL-13 challenged control animals. The difference between the control animals which were vehicle-treated, IL-13 challenged and the control animals which were vehicle-treated, vehicle challenged dictated the 0% and 100% inhibitory effect, respectively, in any given experiment.
# [2] = tested on: IL-2/anti-CD3 stimulated STAT5 phosphorylation in CD4+ T cells; assay: Inhibition of IL-2 stimulated pSTAT5 in CD4+ T cells; format: cell-based; conditions: CD4+ T cells in human PBMCs; read-out: pIC50 inhibition of IL-2 stimulated pSTAT5 (converted)
# Protocol: (§1) The potency of the test compound for inhibition of interleukin-2 (IL-2)/anti-CD3 stimulated STATS phosphorylation was measured in CD4-positive (CD4+) T cells in human peripheral blood mononuclear cells (PBMCs) isolated from human whole blood (Stanford Blood Center) using flow cytometry. Because IL-2 signals through JAK, this assay provides a measure of JAK cellular potency.
# CD4+ T cells were identified using a […] (PE) conjugated anti-CD4 antibody (Clone RPA-T4, BD Biosciences), while an Alexa Fluor 647 conjugated anti-pSTAT5 antibody (pY694, Clone 47, BD Biosciences) was used to detect STATS phosphorylation.
# (1) The protocol of Assay 7 paragraph (1) was followed with the exception that the cytokine stimulation with anti-CD3 was performed for 30 min instead of 24 h.
# (2) After cytokine stimulation, cells were fixed with pre warmed fix solution (200 μL; BD Biosciences) for 10 min at 37° C., 5% CO2, washed twice with DPBS buffer (1 mL, Life Technologies), and resuspended in ice cold Perm Buffer III (1000 μL, BD Biosciences) for 30 min at 4° C. Cells were washed twice with 2% FBS in DPBS (FACS buffer), and then resuspended in FACS buffer (100 μL) containing anti-CD4 PE (1:50 dilution) and anti-CD3 […] (1:5 dilution) for 60 min at room temperature in the dark. After incubation, cells were washed twice in FACS buffer before being analyzed using a LSRII flow cytometer (BD Biosciences). To determine the inhibitory potency of test compounds in response to IL-2/anti-CD3, the median fluorescent intensity (MFI) of pSTAT5 was measured in CD4+ T cells. IC50 values were determined from analysis of the inhibition curves of MFI vs compound concentration. Data are expressed as pIC50 (negative decadic logarithm IC50) values.
# [3] = tested on: IL-4 stimulated STAT6 phosphorylation in CD3+ T cells; assay: Inhibition of IL-4 stimulated pSTAT6 in CD3+ T cells; format: cell-based; conditions: T-cell; CD3+ T cells in human PBMCs; read-out: pIC50 inhibition of IL-4 stimulated pSTAT6 (converted)
# Protocol: as §1, with “interleukin-4 (IL-4)” for “interleukin-2 (IL-2)/anti-CD3”, “STAT6” for “STATS”, “CD3-positive (CD3+)” for “CD4-positive (CD4+)”, “IL-4” for “IL-2”
# CD3+ T cells were identified using a […] (PE) conjugated anti-CD3 antibody (Clone UCHT1, BD Biosciences), while an Alexa Fluor 647 conjugated anti-pSTAT6 antibody (pY641, Clone 18/P, BD Biosciences) was used to detect STAT6 phosphorylation.
# Human peripheral blood mononuclear cells (PBMC) were isolated from human whole blood of healthy donors as in Assays 7 and 8. […] After incubation, cells were washed twice in FACS buffer before being analyzed using a LSRII flow cytometer (BD Biosciences).
# To determine the inhibitory potency of the test compound in response to IL-4, the median fluorescent intensity (MFI) of pSTAT6 was measured in CD3+ T cells. IC50 values were determined from analysis of the inhibition curves of MFI vs compound concentration. Data are expressed as pIC50 (negative decadic logarithm IC50).
# [4] = tested on: IL-6 stimulated STAT3 phosphorylation in CD3+ T cells; assay: Inhibition of IL-6 stimulated pSTAT3 in CD3+ T cells; format: cell-based, human; conditions: for IC50: T-cell, CD3+ T cells in human PBMCs, read-out: pIC50 inhibition of IL-6 stimulated pSTAT3 (converted)
# Text: A protocol analogous to that of Assay 9 was used to determine the potency of the test compound for inhibition of interleukin-6 (IL-6) stimulated STAT3 phosphorylation. An Alexa Fluor 647 conjugated anti-pSTAT3 antibody (pY705, Clone 4/P, BD Biosciences) was used to detect STAT3 phosphorylation.
SMILES,pSTAT6 inhibition Assay 4 [1],IC50 [2] [nM],IC50 [3] [nM],inhibition of IL-6 signaling (in words) [4],IC50 [4] [nM]
"CCCN1Cc2[nH]c(-c3n[nH]c4cc(-c5cc(F)c(O)cc5CC)ccc34)nc2C[C@H]1C(=O)N1C[C@@H]2C[C@H]1CN2C [Example 1, ((S)-2-(6-(2-ethyl-5-fluoro-4-hydroxyphenyl)-1H-indazol-3-yl)-5-propyl-4,5,6,7-tetrahydro-3H-imidazo[4,5-c]pyridin-6-yl)((1S,4S)-5-methyl-2,5-diazabicyclo-[2.2.1]heptan-2-yl)methanone]",A (A represents between 60% and 80% inhibition),~50.1,20,inhibit IL-6 signaling,63.1
CCc1cc(O)c(F)cc1-c1ccc2c(-c3nc4c([nH]3)CN(CC)[C@@H](C(=O)N3CCN(C(C)(C)C)CC3)C4)n[nH]c2c1 [Example 1-37],C (C represents between 25% and 40% inhibition),~7.94,–,–,–
CCc1cc(O)c(F)cc1-c1ccc2c(-c3nc4c([nH]3)CN(C(C)C)[C@H](C(=O)N3CC[C@H](N(C)C)C3)C4)n[nH]c2c1 [Example 3],B (B represents between 40% and 60% inhibition),~20,10,inhibit IL-6 signaling,39.8
